# Experimental data reported in patent US20060183119A1, “Method for determining predisposition to a physiological reaction in a patient” (UNIVERSITE LAVAL, priority 2002, published 2006).
# Where a chain is given by its changes, count along the chain named. Values joined by “and” are separate entries in the source; they are usually repeats but may differ in a detail not shown here. Equal entries are not always repeated.
# Legend:
# Format in all cases: in vitro ADME
# human liver microsomes [1] = assay: SN-38 glucuronide formation by human liver microsome samples of patients; conditions: N 48
# Source text: To obtain statistical data on interindividual variation of SN-38 glucuronidation, we measured the SN-38-G formation, as currently known in the background art, with microsomes preparations from each patient liver sample. The glucuronide formation rates were regrouped into ranges and every sample was categorized within these ranges.
# human liver microsomes [2] = assay: SN-38 glucuronidation kinetics with commercially available human liver microsomes
# Source text: (§1) For the determination of Vmax and Km.
# UGT1A7*1 = target: T1, UGT1A7*1 (Homo sapiens, UniProt Q9HAW7); assay: SN-38 glucuronidation by microsomes of HEK293 cells expressing UGT1A7*1; design: key to Function (SN-38G formation versus *1 allele): High: no significant difference in activity compared to *1 allele.; Low: significantly lower SN-38G formation versus *1 allele
# T1 construct: expressed in transfected cells
# T1 sequence (Q9HAW7 26-530): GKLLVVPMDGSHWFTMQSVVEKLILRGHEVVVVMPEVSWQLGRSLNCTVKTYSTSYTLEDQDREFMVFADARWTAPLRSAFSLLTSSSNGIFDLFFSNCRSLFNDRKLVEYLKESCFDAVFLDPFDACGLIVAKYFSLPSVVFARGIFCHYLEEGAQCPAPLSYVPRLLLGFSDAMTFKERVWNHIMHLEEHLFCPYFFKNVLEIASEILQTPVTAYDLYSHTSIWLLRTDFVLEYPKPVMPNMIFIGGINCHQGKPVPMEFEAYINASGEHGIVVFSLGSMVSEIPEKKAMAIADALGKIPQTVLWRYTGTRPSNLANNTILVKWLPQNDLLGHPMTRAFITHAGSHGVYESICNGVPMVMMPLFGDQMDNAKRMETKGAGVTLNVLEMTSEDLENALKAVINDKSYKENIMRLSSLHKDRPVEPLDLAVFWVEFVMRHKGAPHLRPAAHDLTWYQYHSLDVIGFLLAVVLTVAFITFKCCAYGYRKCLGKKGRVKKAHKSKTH
# Experimental: (§2) Western blot analyses of UGT1A7 and UGT1A9 variants expressed in HEK293 cells were performed on microsomal proteins (10 μg) separated on a 10% SDS-polyacrylamide gel. After transferring the proteins, the membranes were probed with an anti-UGT1A RC-71 polyclonal antibody and with an anti-calnexin antibody. The relative levels of UGT1A9 (a) and UGT1A7 proteins (b) were determined by semi-quantitative densitometric analysis of the Enhanced chemiluminescence (ECL) image. The in vitro SN-38 activity was assessed using microsomal fractions prepared from HEK293 cells expressing the *1 and variant UGT1A9 (c) and UGT1A7 (d) alleles and incubated with 5 μM of SN-38 as described in Materials and Methods.
# as §1
# UGT1A7*7 = target: T2, UGT1A7*7 (Homo sapiens, UniProt Q9HAW7, E139D/N129K/R131K); assay: SN-38 glucuronidation by microsomes of HEK293 cells expressing UGT1A7*7; design: key to Function (SN-38G formation versus *1 allele): High: no significant difference in activity compared to *1 allele.; Low: significantly lower SN-38G formation versus *1 allele
# T2 construct: expressed in transfected cells
# T2 sequence (Q9HAW7 26-530 N129K/R131K/E139D): T1 sequence (Q9HAW7 26-530) with N104K, R106K, E114D
# Experimental: as §2, §1
# UGT1A7*9 = target: T3, UGT1A7*9 (Homo sapiens, UniProt Q9HAW7, G115S/N129K/R131K); assay: SN-38 glucuronidation by microsomes of HEK293 cells expressing UGT1A7*9; design: key to Function (SN-38G formation versus *1 allele): High: no significant difference in activity compared to *1 allele.; Low: significantly lower SN-38G formation versus *1 allele
# T3 construct: expressed in transfected cells
# T3 sequence (Q9HAW7 26-530 G115S/N129K/R131K): T1 sequence (Q9HAW7 26-530) with G90S, N104K, R106K
# Experimental: as §2, §1
smiles,measurement,setting,value
"CCc1c2c(nc3ccc(O)cc13)-c1cc3c(c(=O)n1C2)COC(=O)[C@]3(O)CC [SN-38, 7-ethyl-10-hydroxycamptothecin]","SN-38 glucuronide formation, glucuronidation rate, Mean",human liver microsomes [1],0.61 pmol/mg of protein/minute and 0.6118 pmol/mg of protein/minute
same,"SN-38 glucuronide formation, quantile 0.0% minimum",human liver microsomes [1],0.1063 pmol/mg of protein/minute
same,"SN-38 glucuronide formation, quantile 0.5%",human liver microsomes [1],0.1063 pmol/mg of protein/minute
same,"SN-38 glucuronide formation, quantile 2.5%",human liver microsomes [1],0.1113 pmol/mg of protein/minute
same,"SN-38 glucuronide formation, quantile 10.0%",human liver microsomes [1],0.1641 pmol/mg of protein/minute
same,"SN-38 glucuronide formation, quantile 25.0% quartile",human liver microsomes [1],0.2763 pmol/mg of protein/minute
same,"SN-38 glucuronide formation, quantile 50.0% median",human liver microsomes [1],0.4204 pmol/mg of protein/minute
same,"SN-38 glucuronide formation, quantile 75.0% quartile",human liver microsomes [1],0.9279 pmol/mg of protein/minute
same,"SN-38 glucuronide formation, quantile 90.0%",human liver microsomes [1],1.5699 pmol/mg of protein/minute
same,"SN-38 glucuronide formation, quantile 97.5%",human liver microsomes [1],1.9309 pmol/mg of protein/minute
same,"SN-38 glucuronide formation, quantile 99.5%",human liver microsomes [1],1.9735 pmol/mg of protein/minute
same,"SN-38 glucuronide formation, quantile 100.0% maximum",human liver microsomes [1],1.9735 pmol/mg of protein/minute
same,Km,"human liver microsomes [2]; SN-38, LCQ detector",6.8 ± 3 µM
same,Km,"human liver microsomes [2]; SN-38, fluorescent detection",4.8 ± 0.8 µM
same,SN-38 glucuronidating activity of the allele (in words),UGT1A7*1,highest
same,Function (SN-38G formation versus *1 allele),UGT1A7*1; in vitro experiments,High
same,Function (SN-38G formation versus *1 allele),UGT1A7*7; in vitro experiments,High
same,lower rates of SN-38G formation compared to UGT1A7*1,"UGT1A7*7; range given for *5, *7 and *8 together",38-76%
same,SN-38 glucuronidating activity of the allele (in words),UGT1A7*9,highest and low
same,Function (SN-38G formation versus *1 allele),UGT1A7*9; in vitro experiments,Low
